Test systems include 786-0; HCT-15; HOP-92; LOX IMVI; M14; MOLT-4; NCI-H226; OVCAR-5; OVCAR-8; SF-295; SK-OV-3; SN12C; SW-620; TK-10; U-251; UACC-62; HCC 2998.
Holding throughout (assay): NCI tumour cell line growth inhibition, 48 h

We go through twelve compounds from ChEMBL document CHEMBL1201862, “PubChem BioAssay data set” (2004).

The structures appear in SMILES notation.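 Following 48 hours of exposure in 96-well plates, responses at five concentrations were used to interpolate endpoints linearly. GI50 is the concentration that inhibits growth by half.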 Active and inactive are the calls of the source. Rule as the data show it: active = GI50 up to about 1.1 µM and inactive = higher. A value given as a limit tells only on which side of the number the result lay.

Regarding `Cc1cc2occ(-c3ccc(Cl)cc3)c2c(=O)o1`, the GI50 in the experiment with 786-0 is > 100 µM (inactive); in the experiment with HCT-15, more than 100 µM; in the experiment on HOP-92, > 100 µM (inactive); in the experiment on LOX IMVI, 72.8 µM (inactive); in the experiment with M14, 88.1 µM (inactive); in the experiment with MOLT-4, 67.9 µM (inactive). For the same compound, the GI50 in the experiment on NCI-H226, with OVCAR-5, in the experiment on OVCAR-8, in the experiment on SF-295, in the experiment with SK-OV-3 and with SN12C was > 100 µM (inactive) throughout. The GI50 in the experiment with SW-620, with TK-10, in the experiment with U-251 and in the experiment with UACC-62 was > 100 µM (inactive) each time.

Regarding `N#CC(C(=O)C(=O)Nc1c(Cl)cccc1Cl)c1ccccc1` (centres undefined), the GI50 with 786-0 was > 10 µM (inactive); in the experiment on HCC 2998 it was > 10 µM (inactive); with HCT-15, more than 10 µM; in the experiment with HOP-92, > 10 µM (inactive); with LOX IMVI, 0.356 µM (active); in the experiment on M14 it was > 10 µM (inactive). Besides, the GI50 was > 10 µM (inactive) in the experiment with MOLT-4; > 10 µM (inactive) with NCI-H226; 0.906 µM (active) with OVCAR-5; > 100 µM (inactive) in the experiment on OVCAR-8; 0.302 µM (active) in the experiment on SF-295; > 10 µM (inactive) with SK-OV-3. For the same compound, the GI50 in the experiment with SN12C, in the experiment with SW-620, in the experiment on TK-10, with U-251 and with UACC-62 was > 10 µM (inactive) each time.

Take `CC(=O)OC12C(C)=C(C)C(=O)N1c1ccccc1N2C(C)=O` (centres undefined): the GI50 was > 100 µM (inactive) in the experiment with 786-0; > 100 µM (inactive) in the experiment with HCC 2998; more than 100 µM in the experiment with HCT-15; > 100 µM (inactive) in the experiment with HOP-92; > 100 µM (inactive) in the experiment with LOX IMVI; > 100 µM (inactive) in the experiment with M14. The GI50 in the experiment with MOLT-4, in the experiment on NCI-H226, with OVCAR-5, in the experiment on OVCAR-8, with SF-295 and with SK-OV-3 was > 100 µM (inactive) each time. Further, the GI50 in the experiment on SW-620, in the experiment with TK-10, in the experiment with U-251 and in the experiment with UACC-62 was > 100 µM (inactive) throughout.

Turning to `CC(O)C(NC(=O)c1ccccc1)C(=O)N(Cc1ccccc1)Cc1ccccc1` (centres undefined), the GI50 was > 100 µM (inactive) in the experiment with 786-0; > 100 µM (inactive) in the experiment on HCC 2998; more than 100 µM in the experiment with HCT-15; 75.9 µM (inactive) with HOP-92; > 100 µM (inactive) in the experiment on LOX IMVI; > 100 µM (inactive) in the experiment on M14. Further, the GI50 with MOLT-4 was 61.4 µM (inactive); in the experiment on NCI-H226, > 100 µM (inactive); with OVCAR-5 it was > 100 µM (inactive); with OVCAR-8, > 100 µM (inactive); with SF-295, 94.4 µM (inactive); in the experiment with SK-OV-3 it was > 100 µM (inactive). In addition, the GI50 with SN12C, in the experiment on SW-620, with TK-10, with U-251 and in the experiment with UACC-62 was > 100 µM (inactive) throughout.

For `CC1OC(CC2C=CCc3c(O)c4c(c(O)c32)C(=O)c2ccccc2C4=O)CC(NC(=O)C(F)(F)F)C1O` (centres undefined), the GI50 is 11.1 µM (inactive) in the experiment on 786-0; 29.4 µM (inactive) in the experiment with HCC 2998; 11.9 µM in the experiment on HCT-15; 2.92 µM (inactive) in the experiment with HOP-92; 6.73 µM (inactive) in the experiment on LOX IMVI; 4.29 µM (inactive) with M14. For the same compound, the GI50 with MOLT-4 is 7.21 µM (inactive); with NCI-H226, 13.7 µM (inactive); in the experiment with OVCAR-5 it was 42.8 µM (inactive); with OVCAR-8, 4.22 µM (inactive); in the experiment with SF-295, 5.74 µM (inactive); in the experiment with SK-OV-3, 10.2 µM (inactive). The GI50 was 5.5 µM (inactive) in the experiment with SN12C; 14.3 µM (inactive) in the experiment on SW-620; 2.29 µM (inactive) in the experiment with TK-10; 3.94 µM (inactive) in the experiment on U-251; 4.71 µM (inactive) in the experiment with UACC-62.

As to `c1ccc(C(c2ccccc2)c2ccncc2)cc1`, the GI50 in the experiment on 786-0 is > 100 µM (inactive); in the experiment with HCC 2998 it was 61.7 µM (inactive); in the experiment with HCT-15 it was more than 100 µM; in the experiment on LOX IMVI, > 100 µM (inactive); in the experiment with M14, > 100 µM (inactive); with MOLT-4, > 100 µM (inactive). Moreover, the GI50 in the experiment on NCI-H226, in the experiment on OVCAR-5, with OVCAR-8, in the experiment on SF-295, with SK-OV-3 and with SN12C was > 100 µM (inactive) in each case. The GI50 in the experiment with SW-620, with TK-10, in the experiment with U-251 and in the experiment with UACC-62 was > 100 µM (inactive) throughout.

With `O=C(Nc1nc2ncn(CCI)c2c(=O)[nH]1)c1ccccc1`, the GI50 in the experiment on 786-0 was 46.1 µM (inactive); in the experiment with HCC 2998, > 100 µM (inactive); in the experiment on HCT-15, 98.6 µM; in the experiment on HOP-92, 27.9 µM (inactive); in the experiment with LOX IMVI, > 100 µM (inactive); in the experiment with M14, > 100 µM (inactive). The GI50 in the experiment with MOLT-4 is > 100 µM (inactive); in the experiment on NCI-H226 it was 23.4 µM (inactive); in the experiment on OVCAR-5, > 100 µM (inactive); with OVCAR-8, 31.2 µM (inactive); in the experiment on SF-295, 34 µM (inactive); with SK-OV-3, 33.7 µM (inactive). Besides, the GI50 was 59.3 µM (inactive) in the experiment with SN12C; > 100 µM (inactive) in the experiment on SW-620; 31.3 µM (inactive) in the experiment on TK-10; 28.3 µM (inactive) with U-251; 53.8 µM (inactive) with UACC-62.

On to `Cc1c(-c2coc(-c3ccc(Cl)cc3)n2)c(=O)n(-c2ccccc2)n1C`, for which the GI50 in the experiment on 786-0 was > 100 µM (inactive); in the experiment with HCC 2998 it was 9.4 µM (inactive); in the experiment with HCT-15, more than 100 µM; in the experiment with HOP-92 it was > 100 µM (inactive); with LOX IMVI it was > 100 µM (inactive); in the experiment with M14, > 100 µM (inactive). The GI50 in the experiment with MOLT-4, with NCI-H226, in the experiment with OVCAR-5, with OVCAR-8, in the experiment with SF-295 and in the experiment on SK-OV-3 was > 100 µM (inactive) in each case. Also, the GI50 in the experiment on SN12C, with TK-10, with U-251 and in the experiment on UACC-62 was > 100 µM (inactive) each time.

With `O=C(Nc1ccccc1[N+](=O)[O-])C(=O)C(C(=O)c1ccccc1-c1ccccc1)C1OC(=O)c2ccccc21` (centres undefined), the GI50 in the experiment on 786-0 was 14.7 µM (inactive); with HCC 2998, 14.8 µM (inactive); in the experiment with HCT-15 it was 15.9 µM; in the experiment with LOX IMVI, 16.3 µM (inactive); in the experiment on M14 it was 15.5 µM (inactive); with MOLT-4, 16 µM (inactive). For the same compound, the GI50 in the experiment on NCI-H226 was 6.1 µM (inactive); with OVCAR-5, 20.3 µM (inactive); in the experiment on OVCAR-8 it was 14.8 µM (inactive); in the experiment on SF-295, 16.6 µM (inactive); with SK-OV-3 it was 30.8 µM (inactive); in the experiment with SN12C, 14.6 µM (inactive). In addition, the GI50 in the experiment on SW-620 is 18.5 µM (inactive); with TK-10, 24 µM (inactive); in the experiment with U-251, 11.6 µM (inactive); with UACC-62, 16 µM (inactive).

Consider `COc1ccc(OC)c(/C=N/N=C(\N)NO)c1`, for which the GI50 with 786-0 was 21.4 µM (inactive); with HCT-15, 5.98 µM; in the experiment on HOP-92, 23.3 µM (inactive); with LOX IMVI, 2.84 µM (inactive); in the experiment with M14, 20.1 µM (inactive); with NCI-H226, 16.6 µM (inactive). Further, the GI50 in the experiment with OVCAR-5 is 27.4 µM (inactive); with OVCAR-8 it was 27.7 µM (inactive); with SF-295, 21.9 µM (inactive); in the experiment with SK-OV-3, 30.7 µM (inactive); in the experiment with SN12C it was 31.4 µM (inactive); with SW-620 it was 24.3 µM (inactive). For the same compound, the GI50 in the experiment with TK-10 is 19.4 µM (inactive); in the experiment on U-251, 34.4 µM (inactive); in the experiment with UACC-62 it was 4.61 µM (inactive).

Consider `O=C1c2cccc3cc([N+](=O)[O-])cc(c23)C(=O)N1CCNCCNCCNCCN1C(=O)c2cccc3cc([N+](=O)[O-])cc(c23)C1=O`, for which the GI50 with 786-0 is < 0.001 µM (active); in the experiment on HCC 2998, 0.01 µM (active); in the experiment with HCT-15 it was 0.01 µM; with HOP-92, 0.00343 µM (active); in the experiment with M14, 0.0188 µM (active); with MOLT-4 it was < 0.001 µM (active). Further, the GI50 in the experiment on NCI-H226 is 0.124 µM (active); in the experiment on OVCAR-5 it was 0.0111 µM (active); in the experiment with OVCAR-8, < 0.001 µM (active); in the experiment on SF-295, < 0.001 µM (active); in the experiment with SK-OV-3, 0.0212 µM (active); in the experiment on SN12C it was 0.00251 µM (active). The GI50 is < 0.001 µM (active) in the experiment with SW-620, 0.092 µM (active) in the experiment with TK-10, 0.00198 µM (active) in the experiment on U-251 and 0.00322 µM (active) in the experiment with UACC-62.

As for `Cc1ccccc1NC(=O)C(=O)C(C(=O)c1ccccc1F)C1OC(=O)c2ccccc21` (centres undefined), the GI50 in the experiment on 786-0 was 16.3 µM (inactive); with HCC 2998, 11.5 µM (inactive); in the experiment with HCT-15, 24.5 µM; with HOP-92, 33.3 µM (inactive); in the experiment with LOX IMVI, 16 µM (inactive); in the experiment on M14, 16.6 µM (inactive). Moreover, the GI50 was 9.59 µM (inactive) in the experiment on MOLT-4; 3.38 µM (inactive) in the experiment with NCI-H226; 41.8 µM (inactive) with OVCAR-5; > 10 µM (inactive) in the experiment on OVCAR-8; 34.1 µM (inactive) with SK-OV-3; 25 µM (inactive) with SN12C. Further, the GI50 is 34.9 µM (inactive) with SW-620, 43 µM (inactive) in the experiment with TK-10 and 7.53 µM (inactive) in the experiment with U-251.
